Measurements as given in ChEMBL document CHEMBL4043145, “Pyridine-pyrimidine amides that prevent HGF-induced epithelial scattering by two distinct mechanisms” (Bioorg Med Chem Lett, 2017).
Each block holds one compound with its values, some of them ahead of it. Activity calls are given as the source filed them. The rule behind the calls is not given here.

Key:
[1] = (§1) Inhibition of bovine brain tubulin polymerization; parameters: species or system Bos taurus
Bos taurus [2] = species: Bos taurus; experiment: as §1
Bos taurus [3] = species: Bos taurus; experiment: Inhibition of colchicine binding to bovine brain tubulin up to 25 uM by fluorescence based assay relative to control
[4] = Binding affinity to tubulin (unknown origin) by isothermal titration calorimetric analysis; parameters: species or system Homo sapiens
Homo sapiens = species: Homo sapiens; experiment: Binding affinity to tubulin (unknown origin) by CD spectroscopic method
MCF7 [5] = experiment: Cell cycle arrest in human MCF7 cells assessed as accumulation at G1 phase at 300 nM (reference value: 47.47 to 52.3%); type: functional
PC-3 [6] = experiment: Cell cycle arrest in human p53-null PC3 cells assessed as accumulation at S phase at 300 nM (reference value: 29.08 to 29.33%); type: functional
MFE-280 [7] = experiment: Cell cycle arrest in human MFE280 cells assessed as accumulation at G1 phase at 300 nM (reference value: 64.99 to 67.86%); type: functional
MFE-296 [8] = experiment: Cell cycle arrest in human MFE296 cells assessed as accumulation at S phase at 300 nM (reference value: 16.96 to 19.19%); type: functional
PC-3 [9] = experiment: Cell cycle arrest in human p53-null PC3 cells assessed as accumulation at G1 phase at 300 nM (reference value: 50.77 to 51.16%); type: functional
A2780 [10] = experiment: Cell cycle arrest in human A2780 cells assessed as accumulation at S phase at 300 nM (reference value: 21.16 to 22.81%); type: functional
A2780 [11] = experiment: Cell cycle arrest in human A2780 cells assessed as accumulation at G1 phase at 300 nM (reference value: 55.26 to 55.66%); type: functional
A2780 [12] = experiment: Cell cycle arrest in human A2780 cells assessed as accumulation at G2/M phase at 300 nM (reference value: 19.42 to 20.43%); type: functional
MCF7 [13] = experiment: Cell cycle arrest in human MCF7 cells assessed as accumulation at S phase at 300 nM (reference value: 25.36 to 26.82%); type: functional
T47D [14] = experiment: Cell cycle arrest in human T47D cells assessed as accumulation at G2/M phase at 300 nM (reference value: 20.58 to 28.8%); type: functional
MFE-280 [15] = experiment: Cell cycle arrest in human MFE280 cells assessed as accumulation at G2/M phase at 300 nM (reference value: 16.43 to 17.9%); type: functional
MFE-296 [16] = experiment: Cell cycle arrest in human MFE296 cells assessed as accumulation at G2/M phase at 300 nM (reference value: 15.71 to 17.04%); type: functional
T47D [17] = experiment: Cell cycle arrest in human T47D cells assessed as accumulation at G1 phase at 300 nM (reference value: 45.5 to 57.8%); type: functional
MCF7 [18] = experiment: Cell cycle arrest in human MCF7 cells assessed as accumulation at G2/M phase at 300 nM (reference value: 20.06 to 22.33%); type: functional
MFE-296 [19] = experiment: Cell cycle arrest in human MFE296 cells assessed as accumulation at G1 phase at 300 nM (reference value: 61.05 to 64.87%); type: functional
T47D [20] = experiment: Cell cycle arrest in human T47D cells assessed as accumulation at S phase at 300 nM (reference value: 19.89 to 24.55%); type: functional
MFE-280 [21] = experiment: Cell cycle arrest in human MFE280 cells assessed as accumulation at S phase at 300 nM (reference value: 14.14 to 15.66%); type: functional
PC-3 [22] = experiment: Cell cycle arrest in human p53-null PC3 cells assessed as accumulation at G2/M phase at 300 nM (reference value: 18.37 to 18.96%); type: functional

Compound: Cc1ncc(C(=O)Nc2ccc(-c3cccc(NC4CC4)c3)cn2)cn1
IC50 [1]: 319 nM
inhibition (Bos taurus [2]): Dose-dependent effect

Compound: Cc1ncc(C(=O)Nc2ccc(-c3cccc(S(=O)(=O)C4CC4)c3)cn2)cn1
inhibition (Bos taurus [3]): 70%
Kd [4]: 190 nM
Activity (Homo sapiens): Active
IC50 [1]: 240 nM
inhibition (Bos taurus [2]): Dose-dependent effect

Compound: CC[C@]1(O)C[C@H]2CN(CCc3c([nH]c4ccccc34)[C@@](C(=O)OC)(c3cc4c(cc3OC)N(C=O)[C@H]3[C@@](O)(C(=O)OC)[C@H](OC(C)=O)[C@]5(CC)C=CCN6CC[C@]43[C@@H]65)C2)C1 [VINCRISTINE]
IC50 [1]: 400 to 684 nM

Compound: CC(=O)O[C@H]1C(=O)[C@@]2(C)[C@H]([C@H](OC(=O)c3ccccc3)[C@]3(O)C[C@H](OC(=O)[C@H](O)[C@@H](NC(=O)c4ccccc4)c4ccccc4)C(C)=C1C3(C)C)[C@]1(OC(C)=O)CO[C@@H]1C[C@@H]2O [PACLITAXEL]
Activity (MCF7 [5]): 3.43%
Activity (PC-3 [6]): 20.78%
Activity (MFE-280 [7]): 34.74%
Activity (MFE-296 [8]): 19.73%
Activity (PC-3 [9]): 8.25%
Activity (A2780 [10]): 10.42%
Activity (A2780 [11]): 13.37%
Activity (A2780 [12]): 70.7%
Activity (MCF7 [13]): 7.07%
Activity (T47D [14]): 41.49%
Activity (MFE-280 [15]): 39.59%
Activity (MFE-296 [16]): 51.88%
Activity (T47D [17]): 30.62%
Activity (MCF7 [18]): 86.54%
Activity (MFE-296 [19]): 26.72%
Activity (T47D [20]): 27.89%
Activity (MFE-280 [21]): 22.1%
Activity (PC-3 [22]): 70.82%

Next, values leading:

IC50 [1]: 295 nM
inhibition (Bos taurus [2]): Dose-dependent effect
Compound: Cc1ccc(C(=O)Nc2ccc(-c3cccc(C4CCO4)c3)cn2)cn1 (stereo not given)

IC50 [1]: 817 nM
inhibition (Bos taurus [2]): Dose-dependent effect
Compound: Cc1ncc(C(=O)Nc2ccc(-c3cccc(OC4CC4)c3)cn2)cn1
